Bridge positions count the residues as written; N and C are the ends. Ends that are not written are not given here. Peptide text beside a SMILES is read from it.
Target: T1, rat ROMK (Rattus norvegicus, UniProt P35560)
T1 construct: expressed in transfected cells; host or cells: 293T cell line 208-4 (lentiviral transduction, GFP coexpressed)
T1 sequence (P35560 1-391): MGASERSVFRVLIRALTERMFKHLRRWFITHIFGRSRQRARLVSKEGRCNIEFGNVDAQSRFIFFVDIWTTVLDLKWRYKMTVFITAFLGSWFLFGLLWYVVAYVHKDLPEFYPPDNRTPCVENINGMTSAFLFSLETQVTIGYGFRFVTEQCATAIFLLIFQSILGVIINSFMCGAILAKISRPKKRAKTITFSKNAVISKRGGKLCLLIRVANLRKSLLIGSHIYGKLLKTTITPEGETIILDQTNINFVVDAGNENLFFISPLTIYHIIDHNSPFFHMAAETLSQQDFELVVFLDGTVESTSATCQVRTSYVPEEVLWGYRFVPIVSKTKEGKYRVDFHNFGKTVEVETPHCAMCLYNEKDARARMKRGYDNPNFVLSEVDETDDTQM
Test: Whole-cell patch-clamp of ROMK currents in 208–4 cells
Format: cell-based
Conditions: blockade at 1 μM estimated from fitted Hill curve (four parameters), whole-cell conductance, n = 3–6
Text: The cDNAs for rat ROMK and mouse GIRK1, 2, and 4 were generously donated by Drs Mikio Hayashi (Kansai Medical University) and David Weaver (Vanderbilt University). The ROMK channels were stably expressed by a cell line, 208–4, which was transduced with lentiviral vectors coexpressing the channel and green fluorescent protein (GFP) as described previously. The GIRK genes, cloned in a pCMV6 plasmid (Origene Technologies Inc, Rockville, MD), were transiently expressed in 293T cells with calcium phosphate transfection. GIRK channel currents were recorded 24 h after transfection.
Cells grown on small cover glasses (3 × 18 mm) were placed in a recording chamber. Whole-cell currents were recorded in Tyrode solution using an Axopatch 200B amplifier (Axon Instruments, Foster City, CA) at 25°C. Tyrode solution contained (in mM): NaCl 140, KCl 5.4, NaH2PO4 0.33, CaCl2 2, MgCl2 1, HEPES 5, and glucose 5.5 (pH 7.4 adjusted with NaOH). High K^+ Tyrode solution (KCL 50 mM, NaCl 95 mM, and others were the same as standard Tyrode solution) was used for the recording of GIRK channels. Patch pipettes pulled from borosilicate glass (Narishige, Tokyo, Japan) were filled with an internal solution containing (in mM): K-aspartate 66, KCl 71.5, KH2PO4 1, EGTA 5, HEPES 5, and MgATP 3 (pH 7.4 adjusted with KOH). Recordings were digitized at 10 kHz, and low-pass filtered at 2 kHz. ROMK, Kir2.1, and GIRK currents were evoked with step pulses of 400 msec from -150 mV to 10 mV in 10 mV increments from a holding potential of -70 mV. Whole-cell currents were recorded 60 sec after the peptide application and those from 100 to 300 msec of the step pulses were averaged. Liquid junction potential or capacitive transient was not corrected or compensated. Whole-cell conductance was calculated as the slope of the current-voltage (I-V) relationship from -140 mV to -100 mV and normalized to the initial value (0 μM TPN), in which BaCl2-resistant current was subtracted and indicted as a percentage.

Molecule | Activity (ROMK channel blocking activity, percentage of blockade at 1 μM)
TPN 12–19 [Peptide 15] | - (-, <20%)
TPN-RQ(C14S) [Peptide 47] | - (-, <20%)
TPN-RQ(C18S) [Peptide 48] | - (-, <20%)
TPN 3–10 [Peptide 6] | - (-, <20%)
TPN-RQ(Ins9I) [Peptide 54] | - (-, <20%)

Same assay, conditions: blockade at 1 μM estimated from fitted Hill curve (four parameters), whole-cell conductance, n = 3–6, read-out: Activity (ROMK channel blocking activity, percentage of blockade at 1 μM)

Molecule | inhibition at 1 µM [%]
CC[C@H](C)[C@@H]1NC(=O)[C@H](C)NC(=O)[C@H](C)NC(=O)[C@H](CC(N)=O)NC(=O)[C@@H]2CSSC[C@@H](C(=O)NCC(=O)N[C@@H](CCCCN)C(=O)N[C@@H](CCCCN)C(N)=O)NC(=O)[C@H](CCCCN)NC(=O)[C@H](CCCCN)NC(=O)[C@H](Cc3c[nH]c4ccccc34)NC(=O)[C@H](CSSC[C@H](NC(=O)[C@H](CC(C)C)NC(=O)[C@H](C)N)C(=O)N[C@@H](CC(N)=O)C(=O)N2)NC(=O)[C@H](CCC(N)=O)NC(=O)[C@H](Cc2c[nH]cn2)NC(=O)[C@@H]2CCCN2C(=O)[C@H]([C@@H](C)CC)NC1=O [Peptide 58, TPN-RQ(R7A/R8A)] (H-ALCNCNAAIIPHQCWKKCGKK-NH2; disulfide 3-14, 5-18) | < 20
CC[C@H](C)[C@@H]1NC(=O)[C@H](CCCNC(=N)N)NC(=O)[C@H](CCCNC(=N)N)NC(=O)[C@H](CC(N)=O)NC(=O)[C@@H](N)CSSC[C@@H](C(N)=O)NC(=O)[C@H](CCC(N)=O)NC(=O)[C@H](Cc2c[nH]cn2)NC(=O)[C@@H]2CCCN2C(=O)[C@H]([C@@H](C)CC)NC1=O [Peptide 35, TPN-RQ 5–14] (H-CNRRIIPHQC-NH2; disulfide 1-10) | < 20
CNRIIIPH-NH2 [Peptide 8, TPN 5–12] | < 20
CC[C@H](C)[C@@H]1NC(=O)[C@H](CCCNC(=N)N)NC(=O)[C@H](CCCNC(=N)N)NC(=O)[C@H](CC(N)=O)NC(=O)[C@@H]2CSSC[C@@H](C(=O)NCC(=O)N[C@@H](CCCCN)C(=O)N[C@@H](CCCCN)C(N)=O)NC(=O)[C@H](CCCCN)NC(=O)[C@H](CCCCN)NC(=O)[C@H](Cc3c[nH]c4ccccc34)NC(=O)[C@H](CSSC[C@H](N)C(=O)N[C@@H](CC(N)=O)C(=O)N2)NC(=O)[C@H](CCC(N)=O)NC(=O)[C@H](Cc2c[nH]cn2)NC(=O)[C@@H]2CCCN2C(=O)[C@H]([C@@H](C)CC)NC1=O [Peptide 70, TPN-RQ(Δ1A/Δ2L)] (H-CNCNRRIIPHQCWKKCGKK-NH2; disulfide 1-12, 3-16) | 60 to 80
CC[C@H](C)[C@@H]1NC(=O)[C@H](CCCNC(=N)N)NC(=O)[C@H](CCCNC(=N)N)NC(=O)[C@H](CC(N)=O)NC(=O)[C@@H]2CSSC[C@@H](C(=O)NCC(=O)N[C@@H](CCCCN)C(=O)N[C@@H](CCCCN)C(N)=O)NC(=O)[C@H](CCCCN)NC(=O)[C@H](CCCCN)NC(=O)[C@H](Cc3c[nH]c4ccccc34)NC(=O)[C@H](CSSC[C@H](NC(=O)[C@H](CC(C)C)NC(=O)[C@H](C)N)C(=O)N[C@@H](CC(N)=O)C(=O)N2)NC(=O)[C@H](CCC(N)=O)NC(=O)[C@H](Cc2c[nH]cn2)NC(=O)[C@H](C)NC(=O)[C@H]([C@@H](C)CC)NC1=O [Peptide 62, TPN-RQ(P11A)] (H-ALCNCNRRIIAHQCWKKCGKK-NH2; disulfide 3-14, 5-18) | > 80
ARIIPHQK-NH2 [Peptide 23, TPN-RQ 7-13(R7A) + K] | < 20
CC[C@H](C)[C@@H]1NC(=O)[C@H](CCCNC(=N)N)NC(=O)[C@H](CCCNC(=N)N)NC(=O)[C@H](CC(N)=O)NC(=O)[C@@H]2CSSC[C@@H](C(=O)NCC(N)=O)NC(=O)[C@H](CCCCN)NC(=O)[C@H](CCCCN)NC(=O)[C@H](Cc3c[nH]c4ccccc34)NC(=O)[C@H](CSSC[C@H](NC(=O)[C@H](CC(C)C)NC(=O)[C@H](C)N)C(=O)N[C@@H](CC(N)=O)C(=O)N2)NC(=O)[C@H](CCC(N)=O)NC(=O)[C@H](Cc2c[nH]cn2)NC(=O)[C@@H]2CCCN2C(=O)[C@H]([C@@H](C)CC)NC1=O [Peptide 71, TPN-RQ(Δ20K/Δ21K)] (H-ALCNCNRRIIPHQCWKKCG-NH2; disulfide 3-14, 5-18) | 20 to 40
CC[C@H](C)[C@@H]1NC(=O)[C@H](CCCNC(=N)N)NC(=O)[C@H](CCCNC(=N)N)NC(=O)[C@H](CC(N)=O)NC(=O)[C@@H]2CSSC[C@@H](C(=O)N[C@@H](C)C(=O)N[C@@H](CCCCN)C(=O)N[C@@H](CCCCN)C(N)=O)NC(=O)[C@H](CCCCN)NC(=O)[C@H](CCCCN)NC(=O)[C@H](Cc3c[nH]c4ccccc34)NC(=O)[C@H](CSSC[C@H](NC(=O)[C@H](CC(C)C)NC(=O)[C@H](C)N)C(=O)N[C@@H](CC(N)=O)C(=O)N2)NC(=O)[C@H](CCC(N)=O)NC(=O)[C@H](Cc2c[nH]cn2)NC(=O)[C@@H]2CCCN2C(=O)[C@H]([C@@H](C)CC)NC1=O [Peptide 67, TPN-RQ(G19A)] (H-ALCNCNRRIIPHQCWKKCAKK-NH2; disulfide 3-14, 5-18) | 60 to 80
CC[C@H](C)[C@@H]1NC(=O)[C@H](CCCNC(=N)N)NC(=O)[C@H](CCCNC(=N)N)NC(=O)[C@H](CC(N)=O)NC(=O)[C@@H](NC(=O)[C@@H](N)CC(N)=O)CSSC[C@@H](C(=O)N[C@@H](Cc2c[nH]c3ccccc23)C(=O)N[C@@H](CCCCN)C(=O)N[C@@H](CCCCN)C(N)=O)NC(=O)[C@H](CCC(N)=O)NC(=O)[C@H](CCCCN)NC(=O)[C@@H]2CCCN2C(=O)[C@H]([C@@H](C)CC)NC1=O [Peptide 40, TPN-RQ 4-17(H12K)] (H-NCNRRIIPKQCWKK-NH2; disulfide 2-11) | < 20
IIPHMCWK-NH2 [Peptide 12, TPN 9–16] | < 20
CC[C@H](C)[C@@H]1NC(=O)[C@H](CCCNC(=N)N)NC(=O)[C@H](CCCNC(=N)N)NC(=O)[C@H](CC(N)=O)NC(=O)[C@@H]2CSSC[C@@H](C(=O)NCC(=O)N[C@@H](CCCCN)C(=O)N[C@@H](CCCCN)C(N)=O)NC(=O)[C@H](CCCCN)NC(=O)[C@H](CCCCN)NC(=O)[C@H](C)NC(=O)[C@H](CSSC[C@H](NC(=O)[C@H](CC(C)C)NC(=O)[C@H](C)N)C(=O)N[C@@H](CC(N)=O)C(=O)N2)NC(=O)[C@H](CCC(N)=O)NC(=O)[C@H](Cc2c[nH]cn2)NC(=O)[C@@H]2CCCN2C(=O)[C@H]([C@@H](C)CC)NC1=O [Peptide 65, TPN-RQ(W15A)] (H-ALCNCNRRIIPHQCAKKCGKK-NH2; disulfide 3-14, 5-18) | 20 to 40
CC[C@H](C)[C@@H]1NC(=O)[C@H](CCCNC(=N)N)NC(=O)[C@H](CCCNC(=N)N)NC(=O)[C@H](CC(N)=O)NC(=O)[C@@H](N)CSSC[C@@H](C(N)=O)NC(=O)[C@H](CCC(N)=O)NC(=O)[C@H](CCCCN)NC(=O)[C@@H]2CCCN2C(=O)[C@H]([C@@H](C)CC)NC1=O [Peptide 36, TPN-RQ 5-14(H12K)] (H-CNRRIIPKQC-NH2; disulfide 1-10) | < 20
CC[C@H](C)[C@@H]1NC(=O)[C@H](CCCNC(=N)N)NC(=O)[C@H](CCCNC(=N)N)NC(=O)[C@H](CC(N)=O)NC(=O)[C@@H]2CSSC[C@@H](C(=O)NCC(=O)N[C@@H](CCCCN)C(=O)N[C@@H](CCCCN)C(N)=O)NC(=O)[C@H](CCCCN)NC(=O)[C@H](CCCCN)NC(=O)[C@H](Cc3c[nH]c4ccccc34)NC(=O)[C@H](CSSC[C@H](NC(=O)[C@H](CC(C)C)NC(=O)[C@H](C)N)C(=O)N[C@@H](CC(N)=O)C(=O)N2)NC(=O)[C@H](C)NC(=O)[C@H](Cc2c[nH]cn2)NC(=O)[C@@H]2CCCN2C(=O)[C@H]([C@@H](C)CC)NC1=O [Peptide 64, TPN-RQ(Q13A)] (H-ALCNCNRRIIPHACWKKCGKK-NH2; disulfide 3-14, 5-18) | 20 to 40

Same assay, conditions: whole-cell recordings

Molecule | ROMK blocking activity (in words)
TPN-RQ(Ins9I) [Peptide 54] | abolished the activity
